Assay results published in patent US20260047583A1, “Bacillus Strain and Variants Thereof for Inhibition of Plant Diseases” (CHR. HANSEN A/S, priority 2022, published 2026).
Residues, ends and D or L forms follow the SMILES beside them.

Columns and labels:
[1] = test system: F. culmorum; assay: Inhibitory effect of pure lipopeptides and their combinations on growth in PDB, OD 600 nm; format: cell-based, Fusarium culmorum
Method: (§1) Increasing concentrations of pure stocks of surfactin (Sigma S3523, FIG. 3A), fengycin (Sigma SMB00292, FIG. 3B) or iturin (Sigma 11774, FIG. 3C) were added to 48-well microtiter plates containing PDB medium and a fixed fungal spore concentration. Inhibitory effect over two different phytopathogenic species was assayed, F. culmorum (FIG. 3, left) and P. irregulare (FIG. 3, right). Plates were incubated at 25° C. without shaking for 60 hours (in dark conditions) and fungal growth was measured by spectrophotometry at 600 nm. Experiments were carried out in biological duplicates with no major variations in inhibition potency of the tested strains.
(§2) Fungal growth inhibition of increasing concentrations of single compounds was compared with compound combinations, where a fixed concentration of one of them was assayed in combination with increasing concentrations of the second metabolite.

[2] = test system: P. irregulare; assay: as above; format: cell-based, Pythium irregulare
Method: as §1, §2

[3] = even at high concentrations (200-400 μg/ml), FIG. 3A
[4] = in the presence of surfactin, FIG. 4

## iturin
[1]; 60 h, 25° C., FIG. 3C
  effective concentration for growth inhibition: 9 µg/mL
[2]; 60 h, 25° C., FIG. 3C
  effective concentration for growth inhibition: 9 µg/mL

## CC(C)CCCCCCCCC[C@@H]1CC(=O)N[C@@H](CCC(=O)O)C(=O)N[C@@H](CC(C)C)C(=O)N[C@H](CC(C)C)C(=O)N[C@@H](C(C)C)C(=O)N[C@@H](CC(=O)O)C(=O)N[C@H](CC(C)C)C(=O)N[C@@H](CC(C)C)C(=O)O1 [surfactin] (HELM PEPTIDE1{E.L.[dL].V.D.[dL].L}|CHEM1{[CC(C)CCCCCCCCC[C@H](CC(=O)[*:1])O[*:2]]}$PEPTIDE1,CHEM1,1:R1-1:R1|PEPTIDE1,CHEM1,7:R2-1:R2$$$V2.0)
[1]; [3]
  inhibitory effect on growth: very modest
[2]; [3]
  inhibitory effect on growth: very modest

## fengycin
[1]; [4]
  increase of bioactivity of fengycin in the presence of surfactin: up to 6 fold
[2]; at surfactin concentrations of 100-200 μg/ml
  effective concentration of fengycin required to inhibit growth: 12.5 µg/mL
[2]; [4]
  increase of bioactivity of fengycin in the presence of surfactin: up to 6 fold
